Publication PMC10905675, “INX-315, a Selective CDK2 Inhibitor, Induces Cell Cycle Arrest and Senescence in Solid Tumors” (Cancer Discovery, 2023)

Assays:
Experiment in all cases: SelectScreen LanthaScreen Binding
Conditions in all cases: INX-0315 at 100nM
[1] = biological target: T1, STK38 (NDR) (Homo sapiens, UniProt Q15208)
T1 construct: purchased Thermo Fisher Scientific SelectScreen (plus Nanosyn / Reaction Biology for CDK/cyclin lines)
How it was run: (§1)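 Activity and binding formats were run as established by the profiling service; INX-315 entered at one concentration (100 nmol/L, 1% DMSO) before titration over a 1 µmol/L–0.0495 nmol/L range in ten steps.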

[2] = biological target: T2, CDK2/cyclin A1 (Homo sapiens, UniProt P24941)
T2 construct: host or cells: HEK293
How it was run: as §1

[3] = biological target: T3, STK39 (STLK3) (Homo sapiens, UniProt Q9UEW8)
T3 construct: purchased Thermo Fisher Scientific SelectScreen (plus Nanosyn / Reaction Biology for CDK/cyclin lines)
How it was run: as §1

[4] = biological target: T4, ICK (Homo sapiens, UniProt Q9UPZ9)
T4 construct: purchased Thermo Fisher Scientific SelectScreen (plus Nanosyn / Reaction Biology for CDK/cyclin lines)
T4 sequence (Q9UPZ9 whole entry): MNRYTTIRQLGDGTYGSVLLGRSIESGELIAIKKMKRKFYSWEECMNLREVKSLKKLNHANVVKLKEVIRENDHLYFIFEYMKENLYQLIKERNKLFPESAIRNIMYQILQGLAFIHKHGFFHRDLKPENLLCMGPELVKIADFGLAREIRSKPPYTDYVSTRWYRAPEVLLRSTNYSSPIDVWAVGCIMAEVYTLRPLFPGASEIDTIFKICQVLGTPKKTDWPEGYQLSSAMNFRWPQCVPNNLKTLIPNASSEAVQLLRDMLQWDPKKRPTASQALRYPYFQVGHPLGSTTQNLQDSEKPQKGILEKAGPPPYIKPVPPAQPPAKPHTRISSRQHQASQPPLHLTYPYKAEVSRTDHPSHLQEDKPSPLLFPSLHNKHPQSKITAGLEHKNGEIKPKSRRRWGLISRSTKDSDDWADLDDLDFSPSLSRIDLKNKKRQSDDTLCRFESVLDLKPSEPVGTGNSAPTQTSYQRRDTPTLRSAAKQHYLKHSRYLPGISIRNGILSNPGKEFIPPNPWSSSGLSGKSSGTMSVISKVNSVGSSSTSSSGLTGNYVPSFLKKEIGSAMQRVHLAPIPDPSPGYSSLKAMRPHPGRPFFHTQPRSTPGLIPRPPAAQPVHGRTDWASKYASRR
How it was run: as §1

[5] = biological target: T5, CDK5 (Inactive) (Homo sapiens, UniProt Q00535)
T5 construct: purchased Thermo Fisher Scientific SelectScreen (plus Nanosyn / Reaction Biology for CDK/cyclin lines)
T5 sequence (Q00535 whole entry): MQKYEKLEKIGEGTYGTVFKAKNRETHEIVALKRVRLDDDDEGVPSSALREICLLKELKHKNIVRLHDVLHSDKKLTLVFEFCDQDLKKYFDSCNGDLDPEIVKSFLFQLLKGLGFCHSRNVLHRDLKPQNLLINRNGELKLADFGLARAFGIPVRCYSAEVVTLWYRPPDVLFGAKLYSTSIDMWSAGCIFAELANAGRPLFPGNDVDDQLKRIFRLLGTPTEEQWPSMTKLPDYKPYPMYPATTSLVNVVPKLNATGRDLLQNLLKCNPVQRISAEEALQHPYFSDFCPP
How it was run: as §1

[6] = biological target: T6, CDK11/cyclin C (Homo sapiens, UniProt Q9BWU1)
T6 construct: purchased Thermo Fisher Scientific SelectScreen (plus Nanosyn / Reaction Biology for CDK/cyclin lines)
How it was run: as §1

[7] = biological target: T7, PLK4 (Homo sapiens, UniProt O00444)
T7 construct: purchased Thermo Fisher Scientific SelectScreen (plus Nanosyn / Reaction Biology for CDK/cyclin lines)
How it was run: as §1

[8] = biological target: T8, MAP2K2 (MEK2) (Homo sapiens, UniProt P36507)
T8 construct: purchased Thermo Fisher Scientific SelectScreen (plus Nanosyn / Reaction Biology for CDK/cyclin lines)
How it was run: as §1

[9] = biological target: T9, TESK1 (Homo sapiens, UniProt Q15569)
T9 construct: purchased Thermo Fisher Scientific SelectScreen (plus Nanosyn / Reaction Biology for CDK/cyclin lines)
How it was run: as §1

[10] = biological target: T10, MASTL (Homo sapiens, UniProt Q96GX5)
T10 construct: purchased Thermo Fisher Scientific SelectScreen (plus Nanosyn / Reaction Biology for CDK/cyclin lines)
How it was run: as §1

[11] = biological target: T11, CDK11 (Inactive) (Homo sapiens, UniProt Q9BWU1)
T11 construct: purchased Thermo Fisher Scientific SelectScreen (plus Nanosyn / Reaction Biology for CDK/cyclin lines)
How it was run: as §1

[12] = biological target: T12, PRKACB (PRKAC beta) (Homo sapiens, UniProt P22694)
T12 construct: purchased Thermo Fisher Scientific SelectScreen (plus Nanosyn / Reaction Biology for CDK/cyclin lines)
How it was run: as §1

[13] = biological target: T13, EPHA7 (Homo sapiens, UniProt Q15375)
T13 construct: purchased Thermo Fisher Scientific SelectScreen (plus Nanosyn / Reaction Biology for CDK/cyclin lines)
How it was run: as §1

[14] = biological target: T14, KIT T670E (Homo sapiens, UniProt P10721, T670E)
T14 construct: purchased Thermo Fisher Scientific SelectScreen (plus Nanosyn / Reaction Biology for CDK/cyclin lines)
How it was run: as §1

[15] = biological target: T15, MAP3K7/MAP3K7IP1 (TAK1-TAB1) (Homo sapiens, UniProt O43318)
T15 construct: purchased Thermo Fisher Scientific SelectScreen (plus Nanosyn / Reaction Biology for CDK/cyclin lines)
How it was run: as §1

[16] = biological target: T16, ALK T1151_L1152insT (Homo sapiens, UniProt Q9UM73, INS1151T)
T16 construct: purchased Thermo Fisher Scientific SelectScreen (plus Nanosyn / Reaction Biology for CDK/cyclin lines)
How it was run: as §1

[17] = biological target: T17, TGFBR2 (Homo sapiens, UniProt P37173)
T17 construct: purchased Thermo Fisher Scientific SelectScreen (plus Nanosyn / Reaction Biology for CDK/cyclin lines)
How it was run: as §1

[18] = biological target: T18, MAP3K2 (MEKK2) (Homo sapiens, UniProt Q9Y2U5)
T18 construct: purchased Thermo Fisher Scientific SelectScreen (plus Nanosyn / Reaction Biology for CDK/cyclin lines)
How it was run: as §1

[19] = biological target: T19, SIK3 (Homo sapiens, UniProt Q9Y2K2)
T19 construct: purchased Thermo Fisher Scientific SelectScreen (plus Nanosyn / Reaction Biology for CDK/cyclin lines)
How it was run: as §1

[20] = biological target: T20, EGFR (ErbB1) d746-750 (Homo sapiens, UniProt P00533, DEL746-750)
T20 construct: purchased Thermo Fisher Scientific SelectScreen (plus Nanosyn / Reaction Biology for CDK/cyclin lines)
How it was run: as §1

[21] = biological target: T21, TLK2 (Homo sapiens, UniProt Q86UE8)
T21 construct: purchased Thermo Fisher Scientific SelectScreen (plus Nanosyn / Reaction Biology for CDK/cyclin lines)
How it was run: as §1

[22] = biological target: T22, ERN1 (Homo sapiens, UniProt O75460)
T22 construct: purchased Thermo Fisher Scientific SelectScreen (plus Nanosyn / Reaction Biology for CDK/cyclin lines)
How it was run: as §1

[23] = biological target: T23, CLK4 (Homo sapiens, UniProt Q9HAZ1)
T23 construct: purchased Thermo Fisher Scientific SelectScreen (plus Nanosyn / Reaction Biology for CDK/cyclin lines)
How it was run: as §1

[24] = biological target: T24, SIK1 (Homo sapiens, UniProt P57059)
T24 construct: purchased Thermo Fisher Scientific SelectScreen (plus Nanosyn / Reaction Biology for CDK/cyclin lines)
T24 sequence (P57059 whole entry): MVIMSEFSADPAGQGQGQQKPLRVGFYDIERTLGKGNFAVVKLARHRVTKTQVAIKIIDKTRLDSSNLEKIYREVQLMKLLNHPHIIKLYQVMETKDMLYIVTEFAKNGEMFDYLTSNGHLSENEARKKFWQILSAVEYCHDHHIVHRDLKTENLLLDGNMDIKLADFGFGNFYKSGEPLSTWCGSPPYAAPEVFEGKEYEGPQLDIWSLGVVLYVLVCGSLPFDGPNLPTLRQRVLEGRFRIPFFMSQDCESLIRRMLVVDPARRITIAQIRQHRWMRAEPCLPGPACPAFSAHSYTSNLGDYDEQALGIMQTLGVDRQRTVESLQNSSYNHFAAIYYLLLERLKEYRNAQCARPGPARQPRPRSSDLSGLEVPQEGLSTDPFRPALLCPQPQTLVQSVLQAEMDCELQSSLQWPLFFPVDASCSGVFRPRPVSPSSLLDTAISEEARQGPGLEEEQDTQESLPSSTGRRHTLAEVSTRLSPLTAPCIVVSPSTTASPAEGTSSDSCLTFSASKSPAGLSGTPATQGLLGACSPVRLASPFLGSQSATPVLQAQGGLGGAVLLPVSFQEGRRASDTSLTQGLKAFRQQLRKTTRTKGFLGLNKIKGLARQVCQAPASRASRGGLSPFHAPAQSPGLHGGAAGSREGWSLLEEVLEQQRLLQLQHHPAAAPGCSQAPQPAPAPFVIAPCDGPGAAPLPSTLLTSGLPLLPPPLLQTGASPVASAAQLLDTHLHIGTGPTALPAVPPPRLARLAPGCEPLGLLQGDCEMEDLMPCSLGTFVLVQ
How it was run: as §1

[25] = biological target: T25, ULK3 (Homo sapiens, UniProt Q6PHR2)
T25 construct: purchased Thermo Fisher Scientific SelectScreen (plus Nanosyn / Reaction Biology for CDK/cyclin lines)
How it was run: as §1

[26] = biological target: T26, MYLK (MLCK) (Homo sapiens, UniProt Q15746)
T26 construct: purchased Thermo Fisher Scientific SelectScreen (plus Nanosyn / Reaction Biology for CDK/cyclin lines)
How it was run: as §1

[27] = biological target: T27, MAPK9 (JNK2) (Homo sapiens, UniProt P45984)
T27 construct: purchased Thermo Fisher Scientific SelectScreen (plus Nanosyn / Reaction Biology for CDK/cyclin lines)
T27 sequence (P45984 whole entry): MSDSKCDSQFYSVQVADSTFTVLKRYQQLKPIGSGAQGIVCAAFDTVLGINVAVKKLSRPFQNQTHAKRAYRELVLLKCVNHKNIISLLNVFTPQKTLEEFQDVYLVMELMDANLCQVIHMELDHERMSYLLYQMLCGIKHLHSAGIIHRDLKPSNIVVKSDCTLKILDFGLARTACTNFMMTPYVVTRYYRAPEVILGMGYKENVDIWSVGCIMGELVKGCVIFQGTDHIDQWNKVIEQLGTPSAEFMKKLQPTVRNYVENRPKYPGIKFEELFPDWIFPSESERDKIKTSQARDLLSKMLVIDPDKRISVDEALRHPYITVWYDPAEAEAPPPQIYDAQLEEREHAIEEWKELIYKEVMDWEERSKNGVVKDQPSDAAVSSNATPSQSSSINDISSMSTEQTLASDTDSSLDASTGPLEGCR
How it was run: as §1

[28] = biological target: T28, MKNK2 (MNK2) (Homo sapiens, UniProt Q9HBH9)
T28 construct: purchased Thermo Fisher Scientific SelectScreen (plus Nanosyn / Reaction Biology for CDK/cyclin lines)
T28 sequence (Q9HBH9 whole entry): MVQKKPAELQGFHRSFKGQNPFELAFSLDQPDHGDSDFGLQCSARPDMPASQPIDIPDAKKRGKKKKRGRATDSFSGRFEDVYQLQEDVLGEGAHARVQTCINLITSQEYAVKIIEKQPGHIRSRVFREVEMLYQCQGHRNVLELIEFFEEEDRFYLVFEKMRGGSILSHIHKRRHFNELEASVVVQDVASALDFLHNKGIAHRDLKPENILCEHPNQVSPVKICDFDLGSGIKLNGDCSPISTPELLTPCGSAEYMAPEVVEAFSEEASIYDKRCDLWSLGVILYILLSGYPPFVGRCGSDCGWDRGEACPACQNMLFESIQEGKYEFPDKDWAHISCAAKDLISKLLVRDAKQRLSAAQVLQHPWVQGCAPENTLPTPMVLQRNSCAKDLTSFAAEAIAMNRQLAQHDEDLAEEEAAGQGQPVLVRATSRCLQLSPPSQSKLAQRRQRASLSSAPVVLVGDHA
How it was run: as §1

[29] = biological target: T29, CDK9/cyclin K (Homo sapiens, UniProt P50750)
T29 construct: purchased Thermo Fisher Scientific SelectScreen (plus Nanosyn / Reaction Biology for CDK/cyclin lines)
How it was run: as §1

[30] = biological target: T30, MAP2K5 (MEK5) (Homo sapiens, UniProt Q13163)
T30 construct: purchased Thermo Fisher Scientific SelectScreen (plus Nanosyn / Reaction Biology for CDK/cyclin lines)
How it was run: as §1

[31] = biological target: T31, STK32B (YANK2) (Homo sapiens, UniProt Q9NY57)
T31 construct: purchased Thermo Fisher Scientific SelectScreen (plus Nanosyn / Reaction Biology for CDK/cyclin lines)
How it was run: as §1

[32] = biological target: T32, MAP3K14 (NIK) (Homo sapiens, UniProt Q99558)
T32 construct: purchased Thermo Fisher Scientific SelectScreen (plus Nanosyn / Reaction Biology for CDK/cyclin lines)
How it was run: as §1

[33] = biological target: T33, ALK F1174L (Homo sapiens, UniProt Q9UM73, F1174L)
T33 construct: purchased Thermo Fisher Scientific SelectScreen (plus Nanosyn / Reaction Biology for CDK/cyclin lines)
How it was run: as §1

[34] = biological target: T34, STK32C (YANK3) (Homo sapiens, UniProt Q86UX6)
T34 construct: purchased Thermo Fisher Scientific SelectScreen (plus Nanosyn / Reaction Biology for CDK/cyclin lines)
T34 sequence (Q86UX6 whole entry): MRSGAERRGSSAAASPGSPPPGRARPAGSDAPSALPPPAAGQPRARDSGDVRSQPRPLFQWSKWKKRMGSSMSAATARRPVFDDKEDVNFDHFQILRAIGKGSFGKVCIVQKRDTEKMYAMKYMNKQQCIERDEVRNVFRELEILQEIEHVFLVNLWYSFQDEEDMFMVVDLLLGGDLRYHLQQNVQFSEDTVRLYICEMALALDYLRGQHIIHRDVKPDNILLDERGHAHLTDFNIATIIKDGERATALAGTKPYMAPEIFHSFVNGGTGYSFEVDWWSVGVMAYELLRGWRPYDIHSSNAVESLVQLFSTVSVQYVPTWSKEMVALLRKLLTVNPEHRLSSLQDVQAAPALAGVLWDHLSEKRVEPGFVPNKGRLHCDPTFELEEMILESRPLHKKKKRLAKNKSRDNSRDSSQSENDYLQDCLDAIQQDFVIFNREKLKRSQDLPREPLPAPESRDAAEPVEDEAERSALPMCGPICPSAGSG
How it was run: as §1

[35] = biological target: T35, TGFBR1 (ALK5) (Homo sapiens, UniProt P36897)
T35 construct: purchased Thermo Fisher Scientific SelectScreen (plus Nanosyn / Reaction Biology for CDK/cyclin lines)
T35 sequence (P36897 34-503): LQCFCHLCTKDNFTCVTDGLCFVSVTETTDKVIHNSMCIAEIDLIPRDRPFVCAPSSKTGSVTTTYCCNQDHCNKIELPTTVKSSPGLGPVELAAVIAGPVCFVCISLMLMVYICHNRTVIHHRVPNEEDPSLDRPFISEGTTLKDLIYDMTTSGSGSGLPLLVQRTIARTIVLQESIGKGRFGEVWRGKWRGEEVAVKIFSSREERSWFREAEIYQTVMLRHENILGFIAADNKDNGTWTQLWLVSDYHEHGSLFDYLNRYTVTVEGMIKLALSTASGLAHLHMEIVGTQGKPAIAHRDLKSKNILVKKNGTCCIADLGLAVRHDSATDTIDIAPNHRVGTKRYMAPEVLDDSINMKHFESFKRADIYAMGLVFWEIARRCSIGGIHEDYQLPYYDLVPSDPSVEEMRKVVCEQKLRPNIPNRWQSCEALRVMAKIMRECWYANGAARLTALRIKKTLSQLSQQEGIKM
How it was run: as §1

[36] = biological target: T36, TAOK3 (JIK) (Homo sapiens, UniProt Q9H2K8)
T36 construct: purchased Thermo Fisher Scientific SelectScreen (plus Nanosyn / Reaction Biology for CDK/cyclin lines)
T36 sequence (Q9H2K8 whole entry): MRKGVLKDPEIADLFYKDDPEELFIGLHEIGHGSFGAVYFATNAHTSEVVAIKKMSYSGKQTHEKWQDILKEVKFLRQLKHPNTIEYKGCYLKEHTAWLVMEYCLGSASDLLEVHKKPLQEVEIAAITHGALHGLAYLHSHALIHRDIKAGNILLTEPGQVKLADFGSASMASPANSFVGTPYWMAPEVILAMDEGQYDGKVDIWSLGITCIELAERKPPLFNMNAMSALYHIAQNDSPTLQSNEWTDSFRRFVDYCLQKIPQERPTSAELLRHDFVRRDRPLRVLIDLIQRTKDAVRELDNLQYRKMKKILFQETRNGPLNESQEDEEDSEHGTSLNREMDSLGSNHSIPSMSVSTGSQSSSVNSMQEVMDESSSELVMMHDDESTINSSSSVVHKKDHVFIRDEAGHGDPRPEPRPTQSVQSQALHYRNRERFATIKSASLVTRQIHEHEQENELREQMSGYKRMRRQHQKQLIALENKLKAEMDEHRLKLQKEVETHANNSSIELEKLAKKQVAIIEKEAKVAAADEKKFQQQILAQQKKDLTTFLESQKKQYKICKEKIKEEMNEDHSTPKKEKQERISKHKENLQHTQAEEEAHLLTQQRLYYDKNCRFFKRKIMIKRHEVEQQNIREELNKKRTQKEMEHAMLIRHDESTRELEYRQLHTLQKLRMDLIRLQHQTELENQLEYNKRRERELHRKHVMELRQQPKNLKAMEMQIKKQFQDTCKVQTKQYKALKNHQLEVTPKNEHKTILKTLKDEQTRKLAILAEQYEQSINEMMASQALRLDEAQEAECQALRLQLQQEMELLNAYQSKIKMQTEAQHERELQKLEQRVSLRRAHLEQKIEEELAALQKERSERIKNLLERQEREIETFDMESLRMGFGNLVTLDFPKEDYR
How it was run: as §1

[37] = biological target: T37, AXL R499C (Homo sapiens, UniProt P30530, R499C)
T37 construct: purchased Thermo Fisher Scientific SelectScreen (plus Nanosyn / Reaction Biology for CDK/cyclin lines)
How it was run: as §1

[38] = biological target: T38, MAPK15 (ERK7) (Homo sapiens, UniProt Q8TD08)
T38 construct: purchased Thermo Fisher Scientific SelectScreen (plus Nanosyn / Reaction Biology for CDK/cyclin lines)
T38 sequence (Q8TD08 whole entry): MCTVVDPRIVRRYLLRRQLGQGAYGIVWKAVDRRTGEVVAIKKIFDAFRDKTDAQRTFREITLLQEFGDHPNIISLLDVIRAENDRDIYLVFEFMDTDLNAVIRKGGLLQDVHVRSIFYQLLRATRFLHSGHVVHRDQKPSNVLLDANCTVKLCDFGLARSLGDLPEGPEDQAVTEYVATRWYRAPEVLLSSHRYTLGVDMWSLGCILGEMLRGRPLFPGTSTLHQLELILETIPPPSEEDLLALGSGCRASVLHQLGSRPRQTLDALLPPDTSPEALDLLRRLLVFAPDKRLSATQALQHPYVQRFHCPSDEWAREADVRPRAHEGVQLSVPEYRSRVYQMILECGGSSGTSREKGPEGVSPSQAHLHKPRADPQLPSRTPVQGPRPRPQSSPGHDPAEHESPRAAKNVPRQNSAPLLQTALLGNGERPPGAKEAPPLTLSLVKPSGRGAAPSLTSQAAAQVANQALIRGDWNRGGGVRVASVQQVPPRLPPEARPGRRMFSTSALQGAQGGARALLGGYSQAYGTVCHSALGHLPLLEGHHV
How it was run: as §1

`NS(=O)(=O)c1ccc(Nc2ncc3cc4n(c3n2)C2(CCCCC2)C(=O)NN4)cc1` [INX-315] showed an inhibition at 0.1 µM [1] of 0%, an inhibition at 0.1 µM [2] of 94% and an inhibition at 0.1 µM [3] of 14%. The inhibition at 0.1 µM [4] was 28%, the inhibition at 0.1 µM [5] was 80% and the inhibition at 0.1 µM [6] was 1%. The inhibition at 0.1 µM [7] was 29%, the inhibition at 0.1 µM [8] was 0% and the inhibition at 0.1 µM [9] was 2%. The inhibition at 0.1 µM [10] was 0%, the inhibition at 0.1 µM [11] was 2% and the inhibition at 0.1 µM [12] was 1%. The inhibition at 0.1 µM [13] was 9%, the inhibition at 0.1 µM [14] was 9% and the inhibition at 0.1 µM [15] was 14%. For the same compound, the inhibition at 0.1 µM [16] was 6%, the inhibition at 0.1 µM [17] was 7% and the inhibition at 0.1 µM [18] was 12%. It also gave an inhibition at 0.1 µM [19] of 2%, an inhibition at 0.1 µM [20] of 0% and an inhibition at 0.1 µM [21] of 13%. For the same compound, the inhibition at 0.1 µM [22] was 11%, the inhibition at 0.1 µM [23] was -2% and the inhibition at 0.1 µM [24] was 4%. The inhibition at 0.1 µM [25] was 25%, the inhibition at 0.1 µM [26] was 6% and the inhibition at 0.1 µM [27] was 4%. The inhibition at 0.1 µM [28] was 2%, the inhibition at 0.1 µM [29] was 38% and the inhibition at 0.1 µM [30] was 27%. For the same compound, the inhibition at 0.1 µM [31] was 3%, the inhibition at 0.1 µM [32] was -2% and the inhibition at 0.1 µM [33] was 12%. It also gave an inhibition at 0.1 µM [34] of -1%, an inhibition at 0.1 µM [35] of 4% and an inhibition at 0.1 µM [36] of 4%. It also gave an inhibition at 0.1 µM [37] of 1% and an inhibition at 0.1 µM [38] of 87%.
